This note sets out measurements from US9023814B2, “Glycomimetic compounds as anti-infectious against pathogens lectins” (priority 2010, dated 2015).

The structures appear in SMILES notation. Where two headings read alike, the source gives them in different places.

In series [1] the target is T1, LecA (Pseudomonas aeruginosa, UniProt Q05097). Briefly: Inhibition of Hemagglutination (HIA), LecA-induced agglutination of rabbit erythrocytes. As to conditions: LecA 6 μg/mL, 25° C. Type of series: cell-based. As to the method:
Inhibition of Hemagglutination (IHA) (or Hemagglutination Inhibition Assays (HIA)).
The LecA lectin agglutinates red blood cells since they are covered by glycoconjugates. The glycomimetics inhibit this agglutination.
For each compound the minimum concentration able to perform inhibition has been evaluated. The method is not very quantitative but mimics natural system.
(§1) More particularly, hemagglutination inhibition assays were performed in U-shaped 96-well microtitre plates. Rabbit erythrocytes were bought from Biomerieux and used without further washing. The erythrocytes were diluted to a 4% solution in NaCl (150 mM). Lectin solutions of 2 mg/mL were prepared in Tris/HCl 20 mM, NaCl 100 mM and CaCl2 100 μM. The hemagglutination unit (HU) was first obtained by the addition of 25 μL of the 4% erythrocyte solution to 25 μL aliquots of sequential (two-fold) lectin dilutions. The mixture was incubated at 25° C. for 60 minutes. The HU was measured as the minimum lectin concentration required to […] hemagglutination. For the following lectin-inhibition assays, lectin concentrations of four times that of the hemagglutination unit were used, i.e. a concentration of 6 μg/mL for LecA. Subsequent assays were then carried out by the addition of 12.5 μL lectin solution (at the required concentration) to 25 μL of sequential dilutions of glycoclusters, monomer molecules and controls. These solutions were then incubated at 25° C. for 2 h then 12.5 μL of 4% erythrocyte solution was added followed by an additional incubation at 25° C. for 30 minutes. The minimum inhibitory concentration for each molecule was determined by simple eye detection.
Compounds 5, 10, 14, 19, 21, 23, 25, 27, 29 and 31 were evaluated towards LecA according to Method 1.

Series [2] has as its target T1, LecA. The series can be described thus: Enzyme-Linked Lectin Assay (ELLA), biotinylated LecA binding to polymeric galactose. As to the method: Enzyme-Linked Lectin Assay (ELLA) Experiments 96-well plates are covered with polymer presenting galactose (which is the monosaccharide that is bound by LecA). The lectin labelled with biotin is added in presence of competing glycomimetics. IC50 can be measured.
More particularly, ELLA experiments were conducted using 96-well microtitre plates (Nunc Maxisorb) coated with polymeric β-D-galactose (5 μg/mL; Lectinity Holding, Inc., Moscow) diluted in carbonate buffer, pH 9.6 (100 μL) for 1 h at 37° C. After blocking at 37° C. for 1 h with 100 μL per well of 3% (w/v) BSA in PBS, plates were incubated at 37° C. for 1 h with 100 μL of biotinylated LecA at 0.1 μg/mL in the presence of serial dilutions of inhibitors. After washing with T-PBS (PBS containing 0.05% Tween), 100 μL of streptavidinperoxidase conjugate (dilution 1:10000; Boehringer-Mannheim) was added and left for 1 h at 37° C. The color was developed using 100 μL per well of 0.05 M phosphate/citrate buffer containing O-phenylenediamine dihydrochloride (0.4 mg/mL) and urea hydrogen peroxide (0.4 mg/mL) (Sigma-Aldrich). The reaction was stopped by the addition of 50 μL of 30% H2SO4. Absorbance was read at 490 nm using a microtitre plate reader (Bio-Rad; model 680).

Series [3] deals with T1, LecA. Briefly: biochemical. Type of series: binding. As to the method:
Surface Plasmon Resonance (SPR).
Equivalent method, but performed in miniaturized channel on a galactose-containing chips in a more sophisticated apparatus (Biacore 3000) that allows for a precise determination of the IC50.
More particularly, SPR inhibition experiments were performed on a Biacore 3000 instrument at 25° C. Measurements were carried out on 2 channels with 2 immobilised sugars: α-L-fucose (channel 1), α-D-galactose (channel 2). Immobilization of sugars was performed at 25° C. using running buffer (HBS) at 5 μL/min. Immobilization on each channel (CM5 Chip) was performed independently as follows. First, channel was activated by injecting a fresh mixture of EDC/NHS (35 μL, 420 s). Then, a solution of strepatavidin (100 μg/mL in Na acetate pH 5 buffer) was injected (50 μL, 600 s). Remaining reactive species were quenched by injecting ethanolamine (1M, 35 μL, 420 s). Finally a solution of the desired biotinylated-polyacrylamide-sugar (Lectinity, 200 μg/mL) was coated onto the surface (50 μL, 600 s) through streptavidin-biotin interaction. This procedure led to 804 RU (fucoside) and 796 RU (galactoside) of immobilized sugars on channel 1 and 2 respectively. Inhibition experiments were performed with the galactosylated channel 2 and plots represent subtracted data (channel 2-channel 1).
LecA was injected using running buffer consisting of HEPES 10 mM, NaCl 150 mM, CaCl2 10 mM, Tween P20 0.005%, pH 7.4. Inhibition studies consisted in the injection (150 μL, 10 μL/min, dissociation: 120 s) of incubated (>1 h, r.t.) mixtures of LecA (5 μM) and various concentrations of inhibitor (2-fold cascade dilutions). For each inhibition assay, LecA (5 μM) without inhibitor was injected to observe the full adhesion of the lectin onto the sugar-coated surface (0% inhibition). The CM5 chip was fully regenerated by successive injections of D-Galactose (2×30 μL, 100 mM in running buffer).
Binding was measured as RU over time after blank subtraction, and data were then evaluated using the BIAevaluation Software, version 4.1. For IC50 evaluation, the response (Req-fitted) was considered as the amount of lectin bound to the sugar surface at equilibrium in the presence of a defined concentration of inhibitor. Inhibition curves were obtained by plotting the percentage of inhibition against the inhibitor concentration (on a logarithmic scale) by using Origin 7.0 software (OriginLab Corp.) and IC50 values were extracted from sigmoidal fit of the inhibition curve.

Series [4] deals with T1, LecA. Briefly: biochemical. Type of series: binding. As to the method: Isothermal Titration Microcalorimetry (ITC).
The method allows for a direct measurement of the affinity between the glycomimetics and the LecA lectin. The dissociation constant is measured.
More particularly, recombinant lyophilized LecA was dissolved in buffer (0.1 M TrisHCl, 6 μM CaCl2, pH 7.5) and degassed (see Supp. Info. for concentration details). Protein concentration was checked by measurement of optical density using a theoretical molar extinction coefficient of 28000. Carbohydrate ligands were dissolved directly into the same buffer, degassed, and placed in the injection syringe. ITC was performed with a VP-ITC MicroCalorimeter from MicroCal Incorporated. PA-IL was placed into the 1.4478-mL sample cell, at 25° C. Titration was performed with 10-μL injections of carbohydrate ligands every 300 s. Data were fitted with MicroCal Origin 7 software, according to standard procedures. Fitted data yielded the stoichiometry (n), the association constant (Ka) and the enthalpy of binding (ΔH).
Other thermodynamic parameters (i.e. changes in free energy, ΔG, and entropy, ΔS) were calculated from the equation: ΔG=ΔH TΔS=−RT Inka where T is the absolute temperature and R=8.314 J·mol^−1·K^−1. Two or three independent titrations were performed for each ligand tested.
This is another data set of the same source.

In a further series the test system is Rabbit erythrocytes. Briefly: Hemolysis of red cells observed in the hemagglutination inhibition assay. As to conditions: at the concentration used in the hemagglutination inhibition assay. Type of series: cell-based. As to the method: as §1
The values given in table 1 are inhibiting concentrations of lectin-induced rec cells agglutination. Monocovalent glycoconjugate compound 14 and tetravalent glyconjugate compounds 21 and 23 are the most efficient.

Setting [5] is: read-out: IC50 for the inhibition of labelled-LecA binding to a galactosylated polymer (ELLA), biotinylated LecA 0.1 μg/mL, multi-well plate.
The mark [6] stands for this setting: read-out: IC50 for the inhibition of label-free LecA binding to a galactosylated chip surface (SPR), LecA 5 μM, 25° C.
[7] abbreviates: read-out: Dissociation constant for the interaction in solution with LecA (ITC), 25° C., 0.1 M TrisHCl, pH 7.5.

T1 sequence (Q05097 whole entry): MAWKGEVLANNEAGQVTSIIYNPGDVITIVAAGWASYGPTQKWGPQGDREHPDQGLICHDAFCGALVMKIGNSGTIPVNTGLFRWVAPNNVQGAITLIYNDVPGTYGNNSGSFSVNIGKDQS

Regarding `O=C(Cn1cc(CO)nn1)NCCOCCO[C@@H]1O[C@H](CO)[C@H](O)[C@H](O)[C@H]1O` [Comp. 5, 1-[(1,2,3-Triazol-4-hydroxymethyl-1-yl)-acetamido]-3-oxapent-5-yl β-D-galactopyranoside], the “inhibiting concentrations of lectin-induced red cells agglutination (minimum inhibitory concentration)” value (shortened to “inhibiting concentrations”) against LecA [1] was 10 000 μM. In addition, the IC50 (usually the point on the concentration scale where inhibition reaches its midpoint) on LecA [2] worked out at 250 µM; on LecA [3], 58.3 µM. The Kd on LecA [4] came to 107 µM.

In the case of `O=C(CNC(=O)Cn1cc(CO)nn1)NCCO[C@@H]1O[C@H](CO)[C@H](O)[C@H](O)[C@H]1O` [Comp. 10, 2-N-[(1,2,3-Triazol-4-hydroxymethyl-1-yl)-acetamido]glycinamido-ethyl β-D-galactopyranoside], on LecA [1], the “inhibiting concentrations” value was 2 500 μM. The results for the IC50 at LecA [2] and against LecA [3] were 300 µM and 60 µM, respectively. This compound also displayed a Kd at LecA [4] of 180 µM.

For `CC(C)(C)c1cc2c(OCc3cn(CC(=O)NCCOCCOC4OC(CO)C(O)C(O)C4O)nn3)c(c1)Cc1cc(C(C)(C)C)cc(c1OCc1cn(CC(=O)NCCOCCOC3OC(CO)C(O)C(O)C3O)nn1)Cc1cc(C(C)(C)C)cc(c1OCc1cn(CC(=O)NCCOCCOC3OC(CO)C(O)C(O)C3O)nn1)Cc1cc(C(C)(C)C)cc(c1OCc1cn(CC(=O)NCCOCCOC3OC(CO)C(O)C(O)C3O)nn1)C2` (stereo not shown) [Comp. 19], the “inhibiting concentrations” value against LecA [1] amounted to 500 µM. Further, the IC50 at LecA [2] (setting [5]) was 7 µM; on LecA [3] (setting [6]) it was 1 µM. Besides, on LecA [3], the “IC50 (SPR), in words” value is on record as “micromolar range”. Moreover, the Kd at LecA [4] (setting [7]) is 0.094 µM; on LecA [4] (read-out: dissociation constant (ITC), 25° C.), 0.094 µM.

In the case of `CC(C)(C)c1cc2c(OCc3cn(CC(=O)NCC(=O)NCCOC4OC(CO)C(O)C(O)C4O)nn3)c(c1)Cc1cc(C(C)(C)C)cc(c1OCc1cn(CC(=O)NCC(=O)NCCOC3OC(CO)C(O)C(O)C3O)nn1)Cc1cc(C(C)(C)C)cc(c1OCc1cn(CC(=O)NCC(=O)NCCOC3OC(CO)C(O)C(O)C3O)nn1)Cc1cc(C(C)(C)C)cc(c1OCc1cn(CC(=O)NCC(=O)NCCOC3OC(CO)C(O)C(O)C3O)nn1)C2` (stereo not shown) [Comp. 21], the “inhibiting concentrations” value against LecA [1] came out at 250 µM. The IC50 on LecA [2] (setting [5]) was determined as 21 µM.

For `CC(C)(C)c1cc2c(OCc3cn(CC(=O)NCC(=O)NCCOC4OC(CO)C(O)C(O)C4O)nn3)c(c1)Cc1cc(C(C)(C)C)cc(c1OCc1cn(CC(=O)NCC(=O)NCCOC3OC(CO)C(O)C(O)C3O)nn1)Cc1cc(C(C)(C)C)cc(c1OCc1cn(CC(=O)NCC(=O)NCCOC3OC(CO)C(O)C(O)C3O)nn1)Cc1cc(C(C)(C)C)cc(c1OCc1cn(CC(=O)NCC(=O)NCCOC3OC(CO)C(O)C(O)C3O)nn1)C2` (stereo not shown) [Comp. 23], the “inhibiting concentrations” value against LecA [1] was found to be 250 µM. The IC50 at LecA [2] (setting [5]) was found to be 7 µM; on LecA [3] (setting [6]), 1.1 µM. For the same compound, the “IC50 (SPR), in words” value on LecA [3] is reported as “micromolar range”. Also, on LecA [4] (setting [7]), the Kd turned out to be 239 µM.

Consider `CC(C)(C)c1cc2c(OCc3cn(CC(=O)NCC(=O)NCCOC4OC(CO)C(O)C(O)C4O)nn3)c(c1)Cc1cc(C(C)(C)C)cc(c1OCc1cn(CC(=O)NCC(=O)NCCOC3OC(CO)C(O)C(O)C3O)nn1)Cc1cc(C(C)(C)C)cc(c1OCc1cn(CC(=O)NCC(=O)NCCOC3OC(CO)C(O)C(O)C3O)nn1)Cc1cc(C(C)(C)C)cc(c1OCc1cn(CC(=O)NCC(=O)NCCOC3OC(CO)C(O)C(O)C3O)nn1)C2` (stereo not shown) [Comp. 25], for which, at LecA [1], the “inhibiting concentrations” value worked out at 625 µM. Besides, the half-maximal inhibitory concentration (IC50) at LecA [2] (setting [5]) stood at 14 µM; on LecA [3] (setting [6]), 1.2 µM. In addition, the “IC50 (SPR), in words” value against LecA [3] is given as “micromolar range”.

As for `CC(C)(C)c1cc2c(OCc3cn(CC(=O)Nc4ccc(OC5OC(CO)C(O)C(O)C5O)cc4)nn3)c(c1)Cc1cc(C(C)(C)C)cc(c1OCc1cn(CC(=O)Nc3ccc(OC4OC(CO)C(O)C(O)C4O)cc3)nn1)Cc1cc(C(C)(C)C)cc(c1OCc1cn(CC(=O)Nc3ccc(OC4OC(CO)C(O)C(O)C4O)cc3)nn1)Cc1cc(C(C)(C)C)cc(c1OCc1cn(CC(=O)Nc3ccc(OC4OC(CO)C(O)C(O)C4O)cc3)nn1)C2` (stereo not shown) [Comp. 27], on LecA [2], the “IC50 (ELLA), in words” value is listed as “sub micromolar range”. At LecA [2] (setting [5]), the 50% inhibitory concentration (IC50) was found to be 0.8 µM. Further, in the series with Rabbit erythrocytes, the “Hemolysis of red cells” value is “Hemolysis of red cells is observed”.

On to `CC(C)(C)c1cc2c(OCc3cn(CC(=O)Nc4ccc(OC5OC(CO)C(O)C(O)C5O)cc4)nn3)c(c1)Cc1cc(C(C)(C)C)cc(c1OCc1cn(CC(=O)Nc3ccc(OC4OC(CO)C(O)C(O)C4O)cc3)nn1)Cc1cc(C(C)(C)C)cc(c1OCc1cn(CC(=O)Nc3ccc(OC4OC(CO)C(O)C(O)C4O)cc3)nn1)Cc1cc(C(C)(C)C)cc(c1OCc1cn(CC(=O)Nc3ccc(OC4OC(CO)C(O)C(O)C4O)cc3)nn1)C2` (stereo not shown) [Comp. 29], for which the “IC50 (ELLA), in words” value on LecA [2] is given as “sub micromolar range”. The IC50 at LecA [2] (setting [5]) was 0.9 µM. Also, the “Hemolysis of red cells” value in the series on Rabbit erythrocytes is listed as “Hemolysis of red cells is observed”.
